Test results: ChEMBL document CHEMBL5576070, “The recent discovery of a promising pharmacological scaffold derived from carvacrol: A review” (Bioorg Med Chem Lett, 2024)
In brackets after ≈: the same amount, converted by molar mass.

biological target: Mushroom tyrosinase (Agaricus bisporus, UniProt O42713+Q00024+C7FF04+C7FF05); experiment: Inhibition of mushroom tyrosinase using L-DOPA as substrate by spectrophotometric analysis; type: protein assay; details: not given

SMILES	IC50
Cc1ccc(C(C)C)cc1OC(=O)COC(=O)c1ccc(O)c(O)c1	15900 nM
Cc1ccc(C(C)C)cc1OC(=O)COC(=O)/C=C/c1ccc(Cl)cc1	6700 nM
Cc1ccc(C(C)C)cc1OC(=O)COC(=O)/C=C/c1ccc(O)cc1	6500 nM
Cc1ccc(C(C)C)cc1OC(=O)COC(=O)c1cccc(O)c1	14900 nM
Cc1ccc(C(C)C)cc1OC(=O)COC(=O)c1ccc(O)cc1O	6700 nM

test system: Bacillus subtilis; experiment: Antibacterial activity against Bacillus subtilis assessed as zone of inhibition; type: functional; details: not given

SMILES	inhibition zone (IZ)
Cc1ccc(C(C)C)cc1OCC(=O)Nc1ccccc1	8 mm

test system: Helicobacter pylori; experiment: Antibacterial activity against Helicobacter pylori assessed as reduction in bacterial growth incubated for 24 hrs by broth micro-dilution method; type: functional; details: not given

SMILES	MIC
Cc1cccc(COc2cc(C(C)C)ccc2C)c1	2 µg/mL (≈ 7.86 µM)
Cc1ccc(C(C)C)cc1OCc1ccc(S(C)(=O)=O)cc1	2 µg/mL (≈ 6.28 µM)

test system: Clostridium perfringens; experiment: Antibacterial activity against Clostridium perfringens assessed as bacterial growth inhibition after 24 hrs by microdilution method; type: functional; details: not given

SMILES	MIC
Cc1ccc(C(C)C)cc1OCCn1c([N+](=O)[O-])cnc1C	1 µg/mL (≈ 3.3 µM)
Cc1ccc(C(C)C)cc1OC(=O)Cn1c([N+](=O)[O-])cnc1C	2.7 µg/mL (≈ 8.51 µM)

test system: MIA PaCa-2; experiment: Growth inhibition of human MIA PaCa-2 cells measured for 48 hrs by SRB assay; type: functional; details: not given

SMILES	GI50
Cc1ccc(C(C)C)c(/C=N/Nc2cc(Cl)ncn2)c1O	80 µg/mL (≈ 262 µM)
Cc1ccc(S(=O)(=O)N/N=C/c2c(C(C)C)ccc(C)c2O)cc1	10 µg/mL (≈ 28.9 µM)
Cc1cc(C)c(S(=O)(=O)N/N=C/c2c(C(C)C)ccc(C)c2O)c(C)c1	10 µg/mL (≈ 26.7 µM)
Cc1ccc(C(C)C)c(/C=N/c2c(C(C)C)ccc(C)c2O)c1O	16.9 µg/mL (≈ 51.9 µM)
Cc1ccc(C(C)C)c(/C=N/Nc2ccc(Cl)nn2)c1O	80 µg/mL (≈ 262 µM)

test system: Escherichia coli; experiment: microbe, parasite or virus in culture; details: ATCC 25922, 24 h

SMILES	MIC
Cc1ccc(C(C)C)cc1OC(=O)C(C)C	11.7 µg/mL (≈ 53.1 µM)
C/C=C/C(=O)Oc1cc(C(C)C)ccc1C	11.7 µg/mL (≈ 53.6 µM)
Cc1ccc(C(C)C)cc1OC(=O)c1ccccc1	11.7 µg/mL (≈ 46 µM)
Cc1ccc(C(C)C)cc1OC(=O)Cc1ccccc1	11.7 µg/mL (≈ 43.6 µM)
Cc1ccc(C(C)C)cc1OC(=O)CC(C)C	11.7 µg/mL (≈ 49.9 µM)
CC(=O)Oc1cc(C(C)C)ccc1C	11.7 µg/mL (≈ 60.9 µM)
CCC(=O)Oc1cc(C(C)C)ccc1C	11.7 µg/mL (≈ 56.7 µM)

test system: Salmonella typhimurium; experiment: Antibacterial activity against Salmonella typhimurium DT104 assessed as inhibition of bacterial growth incubated for 18 hrs by CLSI protocol based microbroth dilution method; type: functional, Salmonella enterica subsp. enterica serovar Typhimurium; details: Salmonella enterica

SMILES	MIC
CCOc1cc(C(C)C)ccc1C	0.2 µg/mL (≈ 1.12 µM)
Cc1ccc(C(C)C)cc1OCC(=O)O	0.1 µg/mL (≈ 0.48 µM)

biological target: Acetylcholinesterase (Homo sapiens, UniProt P22303); experiment: Inhibition of AChE (unknown origin) using acetylthiocholine iodide as substrate by Ellman's method; details: not given
Sequence (P22303 whole entry): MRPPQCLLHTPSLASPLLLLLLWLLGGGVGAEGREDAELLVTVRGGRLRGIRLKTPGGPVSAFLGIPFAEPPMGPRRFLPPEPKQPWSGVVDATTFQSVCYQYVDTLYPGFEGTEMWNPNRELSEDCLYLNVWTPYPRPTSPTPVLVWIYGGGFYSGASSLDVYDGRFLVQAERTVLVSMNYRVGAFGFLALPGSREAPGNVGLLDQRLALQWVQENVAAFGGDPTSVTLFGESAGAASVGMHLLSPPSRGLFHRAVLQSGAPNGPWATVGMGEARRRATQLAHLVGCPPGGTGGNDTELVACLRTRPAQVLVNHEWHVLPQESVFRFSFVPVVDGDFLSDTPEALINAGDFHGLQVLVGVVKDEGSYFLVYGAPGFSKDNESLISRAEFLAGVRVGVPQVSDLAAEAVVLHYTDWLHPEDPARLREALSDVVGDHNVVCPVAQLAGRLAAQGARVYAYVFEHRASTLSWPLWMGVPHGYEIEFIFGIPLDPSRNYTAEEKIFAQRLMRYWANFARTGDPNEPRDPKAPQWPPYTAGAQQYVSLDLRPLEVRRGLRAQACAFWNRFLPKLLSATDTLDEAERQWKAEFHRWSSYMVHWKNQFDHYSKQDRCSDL

SMILES	IC50
Cc1ccc(C(C)C)cc1OCC(O)CNC(C)(C)C (configuration not stated)	136 nM
C=CCNCC(O)COc1cc(C(C)C)ccc1C (configuration not stated)	136 nM
Cc1ccc(C(C)C)cc1OCC(O)CNCCC1=CCCCC1 (configuration not stated)	136 nM
CCN(CC)CC(O)COc1cc(C(C)C)ccc1C (configuration not stated)	136 nM
Cc1ccc(C(C)C)cc1OCC(O)CNCc1cccnc1 (configuration not stated)	136 nM

test system: not listed separately; experiment: Antibacterial activity against Salmonella enterica subsp. enterica serovar Pullorum assessed as inhibition of bacterial growth incubated for 18 hrs by CLSI protocol based microbroth dilution method; type: functional; details: not given

SMILES	MIC
Cc1ccc(C(C)C)cc1OC1CC[C@H](O)[C@@H](CO)O1 (some centres not stated)	0.5 µg/mL (≈ 1.78 µM)

test system: Pseudomonas aeruginosa; experiment: Antibacterial activity against Pseudomonas aeruginosa ATCC 27853 assessed as bacterial growth inhibition measured after 18 hrs by CLSI protocol based two-fold serial microdilution method; type: functional; details: not given

SMILES	MIC
C=CCOc1cc(C(C)C)ccc1C	110 µg/mL (≈ 578 µM)

test system: Escherichia coli; experiment: Antibacterial activity against Escherichia coli ATCC 25922 assessed as zone of inhibition incubated for 24 hrs by agar diffusion method; type: functional; details: not given

SMILES	inhibition zone (IZ)
Cc1ccc(C(C)C)cc1OCC(=O)NNS(=O)(=O)c1cccc(C(F)(F)F)c1	10 mm
Cc1ccc(C(C)C)cc1OCC(=O)NNS(=O)(=O)c1ccc(Cl)cc1	10 mm

test system: Clostridium perfringens; experiment: Antibacterial activity against Clostridium perfringens assessed as inhibition of bacterial growth incubated for 18 hrs by CLSI protocol based microbroth dilution method; type: functional; details: not given

SMILES	MIC
C=CCOc1cc(C(C)C)ccc1C	110 µg/mL (≈ 578 µM)

test system: Phytophthora capsici; experiment: Antifungal activity against Phytophthora capsici; type: functional, organism-based; details: not given

SMILES	EC50
CCS(=O)(=O)Oc1cc(C(C)C)ccc1C	0.0666 µg/mL (≈ 0.275 µM)
Cc1ccc(C(C)C)cc1OS(=O)(=O)c1cccs1	0.06124 µg/mL (≈ 0.207 µM)
CCC(C)(NC(=O)c1cc(Cl)c(C)c(Cl)c1)C(=O)CCl (configuration not stated) [ZOXAMIDE]	0.0268 µg/mL (≈ 0.0796 µM)
